Reference: the OPERA property sets (Mansouri et al. 2018)

conditions: not given

Row | Compound | boiling point [°C] | melting point [°C] | log10 Koc (L/kg) | log10 Henry constant (atm·m³/mol) | log10 vapour pressure (mmHg) | ready biodegradability
1 | Cc1ccc(F)cc1[N+](=O)[O-] | 213 | 27 |  |  |  | 
2 | Cc1ccccc1C=Cc1ccccc1C |  | 83 |  |  |  | 
3 | O=C(NCC1CCCCN1)c1cc(OCC(F)(F)F)ccc1OCC(F)(F)F (stereo not drawn) |  | 146 |  |  |  | 
4 | C[C@H](O)[C@H](O)[C@@H](O)[C@@H](O)C=O |  | 135 |  |  |  | 
5 | F[Si](F)(F)c1ccccc1 | 102 | -18 |  |  |  | 
6 | COc1cc(C=O)cc(OC)c1 |  | 46.3 |  |  |  | 
7 | C#CC(C)(C)NC(=O)c1ccc(C(C)C)cc1 |  |  | 2.17 |  |  | 
8 | CC(=O)C1CCCCC1 | 180 |  |  | -4.47 |  | 
9 | CCc1ccc(C(C)C)cc1 | 197 |  |  |  |  | 
10 | C=CC(F)(F)F | -17 |  |  |  | 3.64 | 
11 | NNc1c(Cl)cc(Cl)cc1Cl |  |  |  |  |  | not readily biodegradable
12 | N#Cc1cccc(F)c1 | 182 | -16 |  |  |  | 
13 | C=C[C@@](C)(O)CC/C=C(/C)CCC=C(C)C | 276 |  |  |  |  | 
14 | Nc1c(Cl)ccc(Cl)c1C(=O)O |  | 155 |  |  |  | 
15 | CCOc1ccc(C(N)=O)cc1 |  | 209 |  |  |  | 
16 | N#C/C=C/c1ccccc1 | 264 | 22 |  |  |  | 
17 | C=CC(=O)Cl | 75.5 |  |  |  |  | 
18 | Oc1cccc(-c2ccccc2)c1 |  | 78 |  |  |  | 
19 | C/C=C/C=C/C(=O)O |  |  |  |  |  | readily biodegradable
20 | O=[N+]([O-])c1c(Cl)ncnc1Cl |  | 102 |  |  |  | 
21 | CC(C)CC#N | 128 | -101 |  |  |  | 

Row | Compound | boiling point [°C] | melting point [°C] | log10 Koc (L/kg) | log10 Henry constant (atm·m³/mol) | log10 vapour pressure (mmHg) | ready biodegradability
22 | CC(C)(Br)Br | 115 |  |  |  |  | 
23 | CCC(C)c1ccc(N)cc1 (stereo not drawn) | 238 |  |  |  |  | 
24 | CCOc1cccc([N+](=O)[O-])c1 | 264 | 36 |  |  |  | 
25 | CC=Cc1ccc(OC)cc1 | 234 | 21.3 |  |  | -1.15 | 
26 | N#Cc1nn(-c2c(Cl)cc(C(F)(F)F)cc2Cl)c(N)c1S(=O)C(F)(F)F (stereo not drawn) |  | 200 |  |  | -8.56 | 
27 | COP(=S)(OC)Oc1ccc(Sc2ccc(OP(=S)(OC)OC)cc2)cc1 |  | 30 | 5 |  |  | 
28 | FC(F)(F)C(Cl)=C(Cl)Cl | 88.1 |  |  |  |  | 
29 | O=C1CSC2(CCN(CCCN3c4ccccc4Sc4ccc(Cl)cc43)CC2)N1 |  | 155 |  |  |  | 
30 | Clc1cccc(-c2cc(Cl)c(Cl)c(Cl)c2Cl)c1Cl |  |  |  | -4.54 |  | 
31 | CCCCCCCCCCCCCCCCS | 334 | 19 |  |  | -4.99 | 
32 | O[C@@H]1CO[C@H]2[C@@H]1OC[C@@H]2O |  | 75.2 |  |  |  | 
33 | Oc1ccc2c(c1)[C@@]13CCCC[C@H]1[C@@H](C2)N(CC1CC1)CC3 |  | 188 |  |  |  | 
34 | OCCCCCC(F)(F)F | 166 |  |  |  |  | 
35 | Cc1ccccc1NC(=N)NC(=N)N |  | 144 |  |  |  | 
36 | CCCCCCCCCCCCCCCCCCOP1OCC2(CO1)COP(OCCCCCCCCCCCCCCCCCC)OC2 (stereo not drawn) |  |  |  |  |  | readily biodegradable
37 | Cc1cccc(OP(=O)(Oc2cccc(C)c2)Oc2cccc(C)c2)c1 |  | 25.5 |  | -4.08 |  | readily biodegradable
38 | O=C(CBr)OCC=CCOC(=O)CBr |  |  |  |  |  | readily biodegradable
39 | CC=C(C)C=CC=C(C)C |  | -28 |  |  |  | 
40 | CC1=C2[C@H]3OC(=O)[C@@H](C)[C@@H]3[C@@H](O)C[C@@]2(C)C=CC1=O |  | 203 |  |  |  | 
41 | COc1ccc(C)cc1 | 176 | -32 |  |  |  | 
42 | O=C1OC(=Cc2ccccc2)c2ccccc21 |  | 100 |  |  |  | 

Row | Compound | boiling point [°C] | melting point [°C] | log10 Koc (L/kg) | log10 Henry constant (atm·m³/mol) | log10 vapour pressure (mmHg) | ready biodegradability
43 | CCc1ccc2cc3ccccc3cc2c1 |  | 152 |  |  | -5.28 | 
44 | Clc1cc(Cl)c(Cl)c(-c2cc(Cl)c(Cl)cc2Cl)c1 |  |  |  | -4.6 |  | 
45 | CCOC(=O)C=C(C)C | 154 |  |  |  |  | 
46 | CCc1nc(C)c[nH]1 | 294 | 50.5 |  |  |  | 
47 | CC(C)N(C(=O)SCC(Cl)=C(Cl)Cl)C(C)C |  | 29 | 3.35 |  | -3.92 | 
48 | O=c1oc(=O)c2cc3c(=O)oc(=O)c3cc12 |  |  |  |  |  | readily biodegradable
49 | COc1ccc(C=CC(=O)c2ccc(OC)cc2OC)cc1 |  | 97 |  |  |  | 
50 | Brc1cscc1Br | 222 | 4.5 |  |  |  | 
51 | Ic1cc(I)c(I)c(I)c1I |  | 172 |  |  |  | 
52 | [N-]=[N+]=Nc1ccc(Br)cc1 |  | 20 |  |  |  | 
53 | O=C(O)c1ccc(Br)cc1 |  | 254 |  |  | -5 | 
54 | CCOS(=O)(=O)C(F)(F)F | 115 |  |  |  |  | 
55 | CC(C)c1ccccc1O | 214 | 15.5 |  |  | -1 | 
56 | CC(=O)NC(Cc1c[nH]c2ccccc12)C(=O)O (stereo not drawn) |  | 190 |  |  |  | 
57 | COC(=O)c1c[nH]c2ccccc12 |  | 150 |  |  |  | 
58 | CCC1CCCS1 (stereo not drawn) | 157 |  |  |  |  | 
59 | Cc1cc(C)cc([N+](=O)[O-])c1 | 274 | 75 |  |  |  | 
60 | OCc1ccccc1Cl | 230 | 73 |  |  |  | 
61 | CCOc1ccccc1OS(=O)(=O)NC(O)=Nc1nc(OC)cc(OC)n1 |  | 145 |  |  |  | 
62 | C[C@@H]1C[C@H]2[C@@H]3C[C@H](F)C4=CC(=O)C=C[C@]4(C)[C@@]3(F)[C@@H](O)C[C@]2(C)[C@H]1C(=O)CO |  | 242 |  |  |  | 
63 | OC(c1ccccc1)c1ccccc1 | 298 | 69 | 2.34 |  | -4.56 | readily biodegradable

Row | Compound | boiling point [°C] | melting point [°C] | log10 Koc (L/kg) | log10 Henry constant (atm·m³/mol) | log10 vapour pressure (mmHg) | ready biodegradability
64 | Cc1ccc(S(=O)(=O)O)cc1 |  | 104 |  |  |  | readily biodegradable
65 | C=CBr | 15.8 | -138 |  |  | 3.01 | 
66 | NC(=O)CI |  | 94.5 |  |  |  | not readily biodegradable
67 | O=Cc1cccc(O)c1O | 235 | 108 |  |  |  | 
68 | CCNc1nc(Cl)nc(NC(C)(C)C#N)n1 |  | 168 | 2.28 |  | -6.86 | 
69 | CCCCCC1CCCCC1 | 204 | -57.5 |  |  | -0.429 | 
70 | CCCCCCCCCCCCCC(=O)OCC | 295 | 12.3 |  |  |  | 
71 | O=C(C1CC1)C1CC1 | 161 |  |  |  |  | 
72 | O=Cc1cccc(C=O)c1 | 246 | 89.5 |  |  |  | 
73 | Cc1ccc(C(=O)NN)cc1 |  | 117 |  |  |  | 
74 | Cc1cccc(-c2ccccc2C)c1 | 270 |  |  |  |  | 
75 | Clc1cc(Cl)cc(-c2cc(Cl)c(Cl)c(Cl)c2Cl)c1 |  |  |  | -4.7 |  | 
76 | CC(=O)c1ccc(Cl)c(Cl)c1 |  | 76 |  |  |  | 
77 | Fc1ccc(Cl)cc1 | 130 | -26.8 |  |  |  | 
78 | CC(=O)c1ccc(-c2ccccc2)cc1 | 326 | 121 | 3.22 |  |  | 
79 | COC(=O)c1ccccc1S(=O)(=O)NC(=O)Nc1nc(C)nc(OC)n1 |  | 162 | 1.54 |  |  | 
80 | O=Cc1ccc(CO)o1 |  | 31.5 |  |  |  | 
81 | O=C1CCO1 | 162 | -33.4 |  |  |  | readily biodegradable
82 | FCCl | -9.1 | -133 |  |  | 3.39 | 
83 | CCCCc1cccc(O)c1 | 248 |  |  |  |  | 
84 | CC(C(=O)O)c1ccc(-c2ccccc2)c(F)c1 (stereo not drawn) |  | 110 |  |  |  | 

same assay, conditions: fish

Row | Compound | log10 biotransformation half-life (days) | log10 BCF
85 | Clc1ccc(-c2c(Cl)c(Cl)cc(Cl)c2Cl)c(Cl)c1Cl | 2.5 | 
86 | CC(C)c1ccc2c(c1)CC[C@H]1[C@](C)(C(=O)O)CCC[C@]21C |  | 2.12
87 | N#Cc1nn(-c2c(Cl)cc(C(F)(F)F)cc2Cl)c(N)c1S(=O)C(F)(F)F (stereo not drawn) | -0.21 | 
88 | Clc1cc(Cl)c(Cl)c(-c2cc(Cl)c(Cl)cc2Cl)c1 | 2.4 | 
